Seven compounds from PubChem BioAssay (NCI) can be followed below.

Several values for one entry are separate records, joined by “and”; a condition that tells them apart may be missing. Equal values may be shown once.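 Where inhibition never reached the appropriate level, the endpoint shown equals the highest concentration tested. Otherwise, values were interpolated linearly from a five-concentration, 48-hour dose response in 96-well plates. GI50: concentration for 50% inhibition of growth. Definition used: TGI = concentration required for complete inhibition of growth.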

Test in all cases: inhibition of tumour cell growth, NCI panel, 48 h
Assay [1] deals with HOP-92 NSCLC.
In assay [2] the test system is DU-145 prostate.
Assay [3] relates to OVCAR-8 ovarian.
For assay [4], the system named is MOLT-4 leukemia.
In assay [5] the test system is IGROV1 ovarian.
Assay [6] has as its system SNB-75 CNS.
Assay [7] concerns SK-MEL-28 melanoma.
Assay [8] has as its system 786-0 renal.

In the case of `O=C(/C=C/c1cccnc1)NCCCCC1CCCN(C(=O)c2ccccc2)C1` (stereo unspecified), the GI50 was greater than 100 µM in assay [1]; less than 0.01 µM in assay [2]; less than 0.01 µM in assay [3]; 23 µM in assay [4]; 0.0615 µM in assay [5]; greater than 100 µM in assay [7]. Besides, the GI50 in assay [8] is greater than 64.3 µM. Also, the TGI in assay [1], in assay [2], in assay [3], in assay [4], in assay [5] and in assay [6] was greater than 100 µM each time. Besides, the TGI in assay [7] and in assay [8] was greater than 100 µM in each case.

In the case of `COC(=O)c1c2c(c(C)[n+]([O-])c1C)C(=O)C=C(NCc1ccc(F)c(Cl)c1)C2=O`, the GI50 in assay [1] is 1.69 µM; in assay [2], 0.566 µM; in assay [3] it was 0.155 µM; in assay [4], 0.404 µM; in assay [5], 0.421 µM; in assay [6], 1.69 µM. The values for the GI50 in assay [7] and in assay [8] were 0.411 µM and 1.13 µM, respectively. The TGI is 3.84 µM in assay [1]; 2.07 µM in assay [2]; 1.14 µM in assay [3]; 2.19 µM in assay [4]; 1.91 µM in assay [5]; 3.09 µM in assay [6]. The TGI in assay [7] amounted to 2.15 µM; in assay [8] it was 3.6 µM.

For the compound `NC(N)=N/N=C\c1cccc(OCc2ccccc2)c1`, the GI50 in assay [1] is 2.05 µM; in assay [2] it was 11.4 µM; in assay [3], 6.58 µM; in assay [4], 11.1 µM; in assay [5], 6.07 µM; in assay [6], 7.03 µM. Moreover, the figures for the GI50 in assay [7] and in assay [8] were 1.66 µM and 3.54 µM, respectively. In addition, the TGI was determined as 7.47 µM in assay [1]; 23.9 µM in assay [2]; 38.8 µM in assay [3]; 27.8 µM in assay [4]; 23.8 µM in assay [5]; 23.4 µM in assay [6]. In addition, the TGI in assay [7] worked out at 3.41 µM; in assay [8], 12.6 µM.

On to `O=C1CCCCCCCC/C=C\CC(c2ccco2)O1` (stereo unspecified), for which the GI50 in assay [1] was 17 µM; in assay [2], 44.8 µM; in assay [3] it was 33.4 µM; in assay [4] it was 20.8 µM; in assay [5], 28.1 µM; in assay [6], 21.2 µM. Besides, the GI50 in assay [7] was 31.1 µM; in assay [8], 21.4 µM. Also, the TGI was 94.9 µM in assay [1]; greater than 100 µM in assay [2]; greater than 100 µM in assay [3]; 65.7 µM in assay [4]; greater than 100 µM in assay [5]; 61.8 µM in assay [6]. In addition, the TGI in assay [7] was greater than 100 µM; in assay [8], 70.3 µM.

As for `COc1ncc(-c2ccc3nccc(-c4ccnnc4)c3c2)cc1NS(=O)(=O)c1ccc(F)cc1F`, the GI50 in assay [1] is 0.00109 µM and < 0.01 µM; in assay [2], 0.0119 µM and 0.0164 µM; in assay [3], 0.0191 µM and 0.0173 µM; in assay [4], 0.00505 µM and < 0.01 µM; in assay [5], less than 0.01 µM; in assay [6], 0.00133 µM and < 0.01 µM. Further, the GI50 in assay [7] is 0.00213 µM and < 0.01 µM; in assay [8], 0.00651 µM and < 0.01 µM. Also, the TGI in assay [1] was 0.00872 µM and < 0.01 µM; in assay [2], > 10 µM and 13 µM; in assay [3] it was > 5.42 µM and 3.25 µM; in assay [4], 0.801 µM and 0.579 µM; in assay [5] it was 0.00752 µM and < 0.01 µM; in assay [6], 0.0135 µM and < 0.0156 µM. Moreover, the TGI in assay [7] is 0.0395 µM and 0.36 µM; in assay [8] it was 0.0791 µM and 0.106 µM.

As for `COC(=O)C1=C(C(=O)ON)C2C=CC1(C(Cc1ccccc1)Nc1ccccc1)O2` (stereo unspecified), the GI50 is 1.51 µM in assay [1]; 2.01 µM in assay [2]; 2.75 µM in assay [3]; 2.9 µM in assay [4]; 1.87 µM in assay [5]; 8.9 µM in assay [6]. Moreover, the GI50 was 1.92 µM in assay [7] and 1.76 µM in assay [8]. Moreover, the TGI in assay [1] was found to be 2.91 µM; in assay [2], 4.18 µM; in assay [3], 8.71 µM; in assay [4], 9.49 µM; in assay [5], 3.49 µM; in assay [6], 21.2 µM. Besides, the TGI in assay [7] amounted to 3.66 µM; in assay [8] it was 3.26 µM.

Regarding `O=C1C(=O)c2ccccc2C(O)=C1CC=C(Br)Br`, the GI50 was 12.5 µM in assay [1]; 9.36 µM in assay [2]; 2.14 µM in assay [3]; 2.83 µM in assay [4]; 3.91 µM in assay [5]; 2.58 µM in assay [6]. The GI50 in assay [7] was 12.8 µM; in assay [8], 3.99 µM. The TGI in assay [1] was 76.4 µM; in assay [2], greater than 100 µM; in assay [3], 66.8 µM; in assay [4], greater than 100 µM; in assay [5] it was 93.8 µM; in assay [6] it was 59.5 µM. Moreover, the TGI in assay [7] and in assay [8] was greater than 100 µM in each case.
